Reference: publication PMC10180054, “Design, Synthesis and Biological Evaluation of Novel Pleuromutilin Derivatives Containing 6-Chloro-1-R-1H-pyrazolo[3,4-d]pyrimidine-4-amino Side Chain” (Molecules, 2023)
Converted amounts (≈) assume the structure as drawn.

Assays:
S. aureus AD3 = experiment: MIC/MBC by broth dilution (CLSI); type: cell-based; settings: Staphylococcus aureus, S. aureus AD3 (clinical strain)
Procedure: (§1) The in vitro antimicrobial activity of the pleuromutilin derivatives was assessed against MRSA ATCC 43300, S. aureus ATCC 29213, S. aureus 144 and S. aureus AD3 according to the Clinical and Laboratory Standards Institute (CLSI). Tiamulin was used as a positive control drug. The results were summarized as the minimum inhibitory concentration (MIC) and the minimum bactericidal concentration (MBC) in Table 1 and Table 2. In addition, MIC results for the pleuromutilin derivatives against four Gram-negative bacteria are supplied in Tables S2 and S3.
(§2) The MIC and MBC values of the synthesized novel pleuromutilin derivatives against MRSA ATCC 43300, S. aureus ATCC 29213, S. aureus 144 and S. aureus AD3 were measured. Tiamulin was used as a positive control drug. The MIC and MBC values were manipulated by broth dilution according to the Clinical and Laboratory Standards (CLSI). Each compound to be measured was dissolved in a solution of 95% deionized water, 2.5% dimethyl sulfoxide (DMSO) and 2.5% Tween-80 with a concentration of 1280 µg/mL. Subsequently, serial twofold dilutions were made in a concentration range from 64 µg/mL to 0.0625 µg/mL. The working bacterial suspension was inoculated into each well, which provided the final inoculum density of 5 × 10^5 CFU/mL. Three parallel experiments were performed for each compound.
(§3) Overall, 25 µL of the bacterial solution from the wells with no obvious bacterial growth was inoculated on MH agar plates. Then, the inoculated MH agar plates were further cultured at 37 °C for 24 h.

S. aureus ATCC 29213 = experiment: MIC/MBC by broth dilution (CLSI); type: cell-based; settings: Staphylococcus aureus, ATCC29213; for MBC: S. aureus ATCC 29213; for MIC: S. aureus ATCC 29213, broth dilution, 24 h, 37 °C
Procedure: as §1, §2, §3

S. aureus 144 = experiment: MIC/MBC by broth dilution (CLSI); type: cell-based; settings: Staphylococcus aureus; S. aureus 144 (clinical strain)
Procedure: as §1, §2, §3

MRSA ATCC 43300 = experiment: MIC/MBC by broth dilution (CLSI); type: cell-based, Staphylococcus aureus; settings: Staphylococcus aureus; for MBC: MRSA ATCC 43300, 99.9% of the bacteria killed; for MIC: MRSA ATCC 43300, broth dilution, 24 h, 37 °C, read-out: MIC
Procedure: as §1, §2, §3

Row | Structure (SMILES) | MBC (S. aureus AD3) | MIC (S. aureus AD3) | MBC (S. aureus ATCC 29213) | MIC (S. aureus ATCC 29213) | MBC (S. aureus 144) | MIC (S. aureus 144) | melting point | MBC (MRSA ATCC 43300) | MIC (MRSA ATCC 43300) | MBC (S. aureus AD3; 24 h) | MIC (S. aureus AD3; 24 h)
1 | C=C[C@]1(C)C[C@@H](OC(=O)CNc2nc(Cl)nc3c2cnn3-c2cccc(C)c2)[C@]2(C)[C@H](C)CC[C@]3(CCC(=O)[C@H]32)[C@@H](C)[C@@H]1O [Compound 12b, 22-[(6-Chloro-1-(3-methylphenyl)-1H-pyrazolo[3,4-d]pyrimidine-4-yl)amino]-22-deoxypleuromutilin] | 16 µg/mL (≈ 25.8 µM) | 4 µg/mL (≈ 6.45 µM) | 32 µg/mL (≈ 51.6 µM) | 8 µg/mL (≈ 12.9 µM) | 32 µg/mL (≈ 51.6 µM) | 8 µg/mL (≈ 12.9 µM) | 97 to 99 °C | 32 µg/mL (≈ 51.6 µM) | 8 µg/mL (≈ 12.9 µM) |  | 
2 | C=C[C@]1(C)C[C@@H](OC(=O)CNc2nc(Cl)nc3c2cnn3-c2ccc(C)cc2)[C@]2(C)[C@H](C)CC[C@]3(CCC(=O)[C@H]32)[C@@H](C)[C@@H]1O [Compound 13b, 22-[(6-Chloro-1-(4-methylphenyl)-1H-pyrazolo[3,4-d]pyrimidine-4-yl)amino]-22-deoxypleuromutilin] | > 64 µg/mL | 16 µg/mL (≈ 25.8 µM) | > 64 µg/mL | 32 µg/mL (≈ 51.6 µM) | > 64 µg/mL | 32 µg/mL (≈ 51.6 µM) |  | 32 µg/mL (≈ 51.6 µM) | 16 µg/mL (≈ 25.8 µM) |  | 
3 | C=C[C@]1(C)C[C@@H](OC(=O)CSc2ccc(Nc3nc(Cl)nc4c3cnn4-c3ccc(C)cc3)cc2)[C@]2(C)[C@H](C)CC[C@]3(CCC(=O)[C@H]32)[C@@H](C)[C@@H]1O [Compound 13c, 22-[4-(6-Chloro-1-(4-methylphenyl)-1H-pyrazolo[3,4-d]pyrimidine-4-yl)amino-phenylsulfanyl]-22-deoxypleuromutilin] |  |  | > 64 µg/mL | 8 µg/mL (≈ 11 µM) | > 64 µg/mL | 16 µg/mL (≈ 22 µM) | 101 to 105 °C | > 64 µg/mL | 8 µg/mL (≈ 11 µM) | > 64 µg/mL | 4 µg/mL (≈ 5.49 µM)
4 | C=C[C@]1(C)C[C@@H](OC(=O)CNc2nc(Cl)nc3c2cnn3-c2ccc(C)c(C)c2)[C@]2(C)[C@H](C)CC[C@]3(CCC(=O)[C@H]32)[C@@H](C)[C@@H]1O [Compound 14b, 22-[(6-Chloro-1-(3,4-dimethylphenyl)-1H-pyrazolo[3,4-d]pyrimidine-4-yl)amino]-22-deoxypleuromutilin] | > 64 µg/mL | 16 µg/mL (≈ 25.2 µM) | > 64 µg/mL | 16 µg/mL (≈ 25.2 µM) | > 64 µg/mL | 16 µg/mL (≈ 25.2 µM) | 99 to 103 °C | > 64 µg/mL | 16 µg/mL (≈ 25.2 µM) |  | 
5 | C=C[C@]1(C)C[C@@H](OC(=O)CSc2ccc(Nc3nc(Cl)nc4c3cnn4-c3ccc(C)c(C)c3)cc2)[C@]2(C)[C@H](C)CC[C@]3(CCC(=O)[C@H]32)[C@@H](C)[C@@H]1O [Compound 14c, 22-[4-(6-Chloro-1-(3,4-dimethylphenyl)-1H-pyrazolo[3,4-d]pyrimidine-4-yl)amino-Phenylsulfanyl]-22-deoxypleuromutilin] |  | > 64 µg/mL |  | > 64 µg/mL |  | > 64 µg/mL | 103 to 105 °C |  | > 64 µg/mL |  | 
6 | C=C[C@]1(C)C[C@@H](OC(=O)CNc2nc(Cl)nc3c2cnn3-c2cc(C)cc(C)c2)[C@]2(C)[C@H](C)CC[C@]3(CCC(=O)[C@H]32)[C@@H](C)[C@@H]1O [Compound 15b, 22-[(6-Chloro-1-(3,5-dimethylphenyl)-1H-pyrazolo[3,4-d]pyrimidine-4-yl)amino]-22-deoxypleuromutilin] |  | > 64 µg/mL |  | > 64 µg/mL |  | > 64 µg/mL | 95 to 100 °C |  | > 64 µg/mL |  | 
7 | C=C[C@]1(C)C[C@@H](OC(=O)CSc2ccc(Nc3nc(Cl)nc4c3cnn4-c3cc(C)cc(C)c3)cc2)[C@]2(C)[C@H](C)CC[C@]3(CCC(=O)[C@H]32)[C@@H](C)[C@@H]1O [Compound 15c, 22-[4-(6-Chloro-1-(3,5-dimethylphenyl)-1H-pyrazolo[3,4-d]pyrimidine-4-yl)amino-Phenylsulfanyl]-22-deoxypleuromutilin] |  | > 64 µg/mL |  | > 64 µg/mL |  | > 64 µg/mL | 92 to 95 °C |  | > 64 µg/mL |  | 
8 | C=C[C@]1(C)C[C@@H](OC(=O)CNc2nc(Cl)nc3c2cnn3-c2ccc(CC)cc2)[C@]2(C)[C@H](C)CC[C@]3(CCC(=O)[C@H]32)[C@@H](C)[C@@H]1O [Compound 16b, 22-[(6-Chloro-1-(4-ethylphenyl)-1H-pyrazolo[3,4-d]pyrimidine-4-yl)amino]-22-deoxypleuromutilin] | > 64 µg/mL | 16 µg/mL (≈ 25.2 µM) | > 64 µg/mL | 32 µg/mL (≈ 50.5 µM) | > 64 µg/mL | 32 µg/mL (≈ 50.5 µM) | 101 to 103 °C | > 64 µg/mL | 32 µg/mL (≈ 50.5 µM) |  | 
9 | C=C[C@]1(C)C[C@@H](OC(=O)CSc2ccc(Nc3nc(Cl)nc4c3cnn4-c3ccc(CC)cc3)cc2)[C@]2(C)[C@H](C)CC[C@]3(CCC(=O)[C@H]32)[C@@H](C)[C@@H]1O [Compound 16c, 22-[4-(6-Chloro-1-(4-ethylphenyl)-1H-pyrazolo[3,4-d]pyrimidine-4-yl)amino-Phenylsulfanyl]-22-deoxypleuromutilin] |  | > 64 µg/mL |  | > 64 µg/mL |  | > 64 µg/mL | 97 to 99 °C |  | > 64 µg/mL |  | 
10 | C=C[C@]1(C)C[C@@H](OC(=O)CNc2nc(Cl)nc3c2cnn3-c2cccc(OC)c2)[C@]2(C)[C@H](C)CC[C@]3(CCC(=O)[C@H]32)[C@@H](C)[C@@H]1O [Compound 17b, 22-[(6-Chloro-1-(3-methoxyphenyl)-1H-pyrazolo[3,4-d]pyrimidine-4-yl)amino]-22-deoxypleuromutilin] |  | > 64 µg/mL |  | > 64 µg/mL |  | > 64 µg/mL | 99 to 104 °C |  | > 64 µg/mL |  | 
11 | C=C[C@]1(C)C[C@@H](OC(=O)CSc2ccc(Nc3nc(Cl)nc4c3cnn4-c3cccc(OC)c3)cc2)[C@]2(C)[C@H](C)CC[C@]3(CCC(=O)[C@H]32)[C@@H](C)[C@@H]1O [Compound 17c, 22-[4-(6-Chloro-1-(3-methoxyphenyl)-1H-pyrazolo[3,4-d]pyrimidine-4-yl)amino-Phenylsulfanyl]-22-deoxypleuromutilin] |  | > 64 µg/mL |  | > 64 µg/mL |  | > 64 µg/mL | 97 to 102 °C |  | > 64 µg/mL |  | 
12 | C=C[C@]1(C)C[C@@H](OC(=O)CNc2nc(Cl)nc3c2cnn3-c2ccccc2F)[C@]2(C)[C@H](C)CC[C@]3(CCC(=O)[C@H]32)[C@@H](C)[C@@H]1O [Compound 18b, 22-[(6-Chloro-1-(2-fluorophenyl)-1H-pyrazolo[3,4-d]pyrimidine-4-yl)amino]-22-deoxypleuromutilin] |  | > 64 µg/mL |  | > 64 µg/mL |  | > 64 µg/mL | 107 to 110 °C |  | > 64 µg/mL |  | 
13 | C=C[C@]1(C)C[C@@H](OC(=O)CSc2ccc(Nc3nc(Cl)nc4c3cnn4-c3ccccc3F)cc2)[C@]2(C)[C@H](C)CC[C@]3(CCC(=O)[C@H]32)[C@@H](C)[C@@H]1O [Compound 18c, 22-[4-(6-Chloro-1-(2-fluorophenyl)-1H-pyrazolo[3,4-d]pyrimidine-4-yl)amino-Phenylsulfanyl]-22-deoxypleuromutilin] |  | > 64 µg/mL |  | > 64 µg/mL |  | > 64 µg/mL | 123 to 127 °C |  | > 64 µg/mL |  | 
14 | C=C[C@]1(C)C[C@@H](OC(=O)CNc2nc(Cl)nc3c2cnn3-c2ccc(F)cc2)[C@]2(C)[C@H](C)CC[C@]3(CCC(=O)[C@H]32)[C@@H](C)[C@@H]1O [Compound 19b, 22-[(6-Chloro-1-(4-fluorophenyl)-1H-pyrazolo[3,4-d]pyrimidine-4-yl)amino]-22-deoxypleuromutilin] |  |  | > 64 µg/mL | 16 µg/mL (≈ 25.6 µM) | > 64 µg/mL | 32 µg/mL (≈ 51.3 µM) | 112 to 115 °C | > 64 µg/mL | 16 µg/mL (≈ 25.6 µM) | > 64 µg/mL | 8 µg/mL (≈ 12.8 µM)
15 | C=C[C@]1(C)C[C@@H](OC(=O)CNc2nc(Cl)nc3c2cnn3-c2ccc(F)cc2F)[C@]2(C)[C@H](C)CC[C@]3(CCC(=O)[C@H]32)[C@@H](C)[C@@H]1O [Compound 20b, 22-[(6-Chloro-1-(2,4-difluorophenyl)-1H-pyrazolo[3,4-d]pyrimidine-4-yl)amino]-22-deoxypleuromutilin] |  | > 64 µg/mL |  | > 64 µg/mL |  | > 64 µg/mL | 123 to 125 °C |  | > 64 µg/mL |  | 
16 | C=C[C@]1(C)C[C@@H](OC(=O)CNc2nc(Cl)nc3c2cnn3-c2ccc(OC(F)(F)F)cc2)[C@]2(C)[C@H](C)CC[C@]3(CCC(=O)[C@H]32)[C@@H](C)[C@@H]1O [Compound 23b, 22-[(6-Chloro-1-(4-(trifluoromethoxy)Phenyl)-1H-pyrazolo[3,4-d]pyrimidine-4-yl)amino]-22-deoxypleuromutilin] |  | > 64 µg/mL |  | > 64 µg/mL |  | > 64 µg/mL |  |  | > 64 µg/mL |  | 
17 | C=CC1(C)CC(OC(=O)CSc2ccc(N)cc2)C2(C)C(C)CCC3(CCC(=O)C32)C(C)C1O (stereo not shown) [Compound 32, 22-(4-Amino-phenylsulfanyl)deoxypleuromutilin] |  |  |  | 0.0015 µg/mL (≈ 0.00309 µM) |  | 0.003 µg/mL (≈ 0.00618 µM) |  |  | 0.0015 µg/mL (≈ 0.00309 µM) |  | 0.0015 µg/mL (≈ 0.00309 µM)
